According to US20250073207A1, “PSILOCIN BENZOATE FORMULATION FOR I[…]” (Eleusis Therapeutics US, Inc., priority 2022, published 2025):

Legend:
[1] = Solubility testing of psilocin benzoate salt in potential intravenous vehicles
Procedure: Solubility of the psilocin benzoate salt was assessed in a range of potential intravenous vehicles. […] Each vehicle was degassed by sonication prior to use.
The pH of each formulation was measured and samples for assay analysis from each formulation were taken following preparation and then again following 6 hours bench top storage at ambient temperature.

[2] = Stability in solution of psilocin free base versus benzoate salt; settings: prone to oxidation

| Compound | solubility under saturating conditions ([1]; all of the vehicles on test) | limit of solubility ([1]; in aqueous solution) | stability in solution [2] |
| --- | --- | --- | --- |
| CN(C)CCc1c[nH]c2cccc(O)c12.O=C(O)c1ccccc1 [psilocin benzoate] | partially soluble | approximately 4 mg/ml | more stable |
| CN(C)CCc1c[nH]c2cccc(O)c12 [Psilocin] | – | – | highly unstable in solution |
